Source: patent publication US10434049B2, “Methods of producing compounds that stimulate hair regrowth, topical formulations, and methods of use” (Joventis S.A., priority 2013, dated 2019)

Legend:
Assay type in all cases: in vivo, human
[1] = system: hair growth; experiment: Before/after photographs of individual subjects (FIG. 2, FIG. 11)
Source text: The subject in FIG. 2A starts out with a complete bald spot. […] Before treatment with Formula (I), the subject shown in FIG. 2C has dark, balding hair.

[2] = system: hair growth; experiment: Six-month study of twenty volunteers, monthly self-reported hair growth questionnaires; settings: for participants who noticed new hair growth: lotion applied to scalp at least once a day
Source text: In a systematic study of twenty volunteers, including 8 women, study participants self-reported hair regrowth metrics by answering questionnaires at the end of each month of treatment with Formula (I) over the course of six months. The mean age of participants was 54 years old (SD=11 years). Participants had no history of hair implants and had normal eating and sleeping patterns. Participants first read and signed an informed consent form in which they were informed about the hair regeneration product, a lotion comprising Formula (I). The information about Formula (I) included that Formula (I) was designed to increase hair growth, that it was based on natural compounds, and that use of the product would not lead to harmful effects. Participants received explicit instructions on how to use the product, were asked to apply the product at least once a day on their scalp, and were asked not to use any other hair growth or regeneration products for the 6-month duration of the study. […] During this session photos were taken to measure and count any increases in hair regrowth, and participants answered questionnaires that probed the effects using Formula (I). Questionnaires comprised 14 yes or no questions based on Barber's 1998 the hair growth questionnaire. Barber et al., A hair growth questionnaire for use in the evaluation of therapeutic effects in men, J. DERMATOLOGICAL TREATMENT, Vol. 9(3), pp. 181-86 (1998). The questions included: • Did you notice new hair growth during the past month? • Did you notice new hair growth since the start of treatment? • Did you notice any new hair loss during the past month? • Did you notice any new hair loss since the start of the treatment? • Did you notice more hair loss than before since the start of the treatment? • Did you notice that your hairs felt thicker during the past month? • Did you notice that your hairs felt thicker since the start of the treatment? • Did you notice that your hairs felt more healthy during the past month? • Did you notice that your hairs felt more healthy since the start of the treatment? • The tenth and eleventh questions asked whether hairs felt less fragile during the past month and since the start of the treatment. • The final questions asked whether participants had noticed their hair color increasing and whether it became less grey/white during the past month and since the start of the treatment.

[3] = system: collagen in sun damaged skin; experiment: Cosmetic collagen regeneration clinical trial, high-resolution ultrasound scanner images of skin; settings: ultrasound images before and after treatment, sun damaged skin (FIG. 12A/12B)
Experimental: In yet further aspects of the inventive subject matter, cosmetic collagen regeneration effects of Formula (I) were assessed in a clinical trial run by Sempervivum, a medical esthetics company. Twenty-four volunteers (22 women and 2 men) participated in this study. Participants were on average 59 years old (Mean (M)=59 years, Standard Deviation (SD)=12 years). In this case, the age of the participants is 59 years with an average deviation of 12 years. Participants had no history of cosmetic surgery and stated to have normal eating and sleeping patterns. High-resolution ultrasound scanner images of collagen in sun damaged skin are shown in FIG. 12A (before treatment) and FIG. 12B (after treatment). […] It also appears that more interconnected collagen fibers are present in the dermis of the skin, and spots representing collagen seem to be more connected and closer to the epidermal layer.

[4] = system: hair growth; experiment: Six-month study, hair growth by digital analysis of photographs of a chosen spot
Source text: In a systematic study of twenty volunteers, including 8 women, study participants self-reported hair regrowth metrics by answering questionnaires at the end of each month of treatment with Formula (I) over the course of six months. The mean age of participants was 54 years old (SD=11 years). Participants had no history of hair implants and had normal eating and sleeping patterns. Participants first read and signed an informed consent form in which they were informed about the hair regeneration product, a lotion comprising Formula (I). The information about Formula (I) included that Formula (I) was designed to increase hair growth, that it was based on natural compounds, and that use of the product would not lead to harmful effects. Participants received explicit instructions on how to use the product, were asked to apply the product at least once a day on their scalp, and were asked not to use any other hair growth or regeneration products for the 6-month duration of the study. […] During this session photos were taken to measure and count any increases in hair regrowth, and participants answered questionnaires that probed the effects using Formula (I). […] Hair growth was measured by counting and estimating the total amount of thick/thin hairs on the specific spot, based on digital analysis of each photograph.

[5] = system: burn; experiment: Burned hands of a lab technician, one hand treated, other untreated; settings: treated for one month; untreated hand developed calluses
Experimental: Along these lines, a lab technician who burned both hands, and hair regrowth at the site of the burn was assessed. One hand was treated for one month with a composition comprising Formula (I), and the other hand was left untreated. […] The untreated hand developed calluses instead.

[6] = over the course of treatment, questionnaires (FIG. 10)

## CC1=CC2(C(C)C)CC(=C1)C2(C)C (centres unmarked) [Formula (I), 3,6,6-trimethyl-5-(propan-2-yl)bicyclo[3.1.1]hepta-1,3-diene]
[1]; after 4 months of treatment (FIG. 11A/11B)
  hair regrowth at alopecia site, subject who lost all body hair after trauma: hair growth at the alopecia site
[1]; after 6 months of treatment (FIG. 2A/2B)
  hair regrowth, subject with complete bald spot: white hair has grown into the bald spot
[1]; after 6 months of treatment (FIG. 2C/2D)
  hair regrowth, subject with dark, balding hair: dark hair has begun to regrow
[2]; after 1 month of treatment, self-reported
  participants who noticed new hair growth: 47%
[2]; after 6 months of treatment, self-reported
  participants who noticed new hair growth: 94%
[2]; at some point during treatment, self-reported
  participants who noticed an increase in hair loss: 20%
[2]; conclusion from questionnaires and photo analyses, 6-month study
  overall effect on hair growth: highly effective in stimulating hair growth
[2]; during the last month of treatment and since the start of treatment, self-reported (FIG. 5)
  participants who noticed an increase in healthy hair, thicker hair and less fragile hair: 85-92%
[2]; last month of treatment and since start of treatment, self-reported (FIG. 6)
  hair color in participants with white/grey hair before treatment: significant increase in color
[2]; over the course of treatment (FIG. 9)
  amount of thick hair in participants with thin hair: significant increase in the amount of thick hair
[2]; [6]
  amount of white hair in participants with white/grey hair: increased to a lesser extent
  black hair as percent of total hair in participants with white/grey hair: increase in the percent of total hair that was black
[2]; over the whole course of the treatment, self-reported, alopecia patients excluded
  participants who noticed that some new hairs fell out: 14%
[3]
  collagen in skin after treatment: significant increases in collagen
[4]; after 6 months, photo analysis (FIG. 8)
  increase in long fine and thick hairs in balding participants: triple to quadruple overall increases
[4]; photo analysis, participants initially with no hair at the probed place (FIG. 7)
  hair growth in bald participants, including alopecia patients: both fine hairs and more thick hairs suddenly started to grow
[5]
  skin outcome of burned hand: developed new smooth skin
